From patent US20160215305A1, “Process of Fermenting A Lignocellulosic Biomass” (priority 2015, published 2016)

Tested on: S. cerevisiae
Experiment: Batch fermentation of amino acid detoxified loblolly pine hydrolysates by Baker yeast
Format: cell-based, Saccharomyces cerevisiae
Settings: pH 6.0, 60° C.; for CEtOH, ethanol final concentration at 48 h / CHMF, percentage of HMF consumed at 48 h / QEtOH, volumetric ethanol productivity in the first 6 h / RG, glucose consumption rate in the first 6 h / RM, mannose consumption rate in the first 6 h / YEtOH, ethanol yield from total glucose and mannose at 48 h: hydrolysates detoxified with amino acid 0.2% w/v, 2 hours
Excerpt: Loblolly pine (Pinus taeda) wood chips (1.0×1.0 cm, L×W) were collected by Forest Products Laboratory at Auburn University, located in Auburn, Ala. Dilute acid pretreatment was used to produce biomass hydrolysates in a 4.0 L Parr batch reactor (Parr Instrument Co., Moline, Ill.) as previously described (Lai, C. H., Tu, M. B., Li, M., Yu, S. Y. 2014. Remarkable solvent and extractable lignin effects on enzymatic digestibility of organosolv pretreated hardwood. Bioresource Technology, 156, 92-98). Briefly, wood chips (400 grams, dry weight) were soaked in 1% (w/w) sulfuric acid overnight (7:1 liquor/solid ratio) prior to the pretreatment, and then loaded into a reactor and treated at 170° C. for 60 minutes.
To achieve higher ethanol titer in fermentation, loblolly pine hydrolysates were concentrated to approximately one-third of its original volume using a rotary evaporator (IKA RV10 basic) at 40° C. and 60 rotations per minute (rpm). The hydrolysates were first adjusted to pH 4.0 before evaporation. After the concentration, the sugar contents of the hydrolysates were analyzed by HPLC.
[…] The detoxification experiments were performed in a 250 mL flask and placed in a temperature-controlled water batch.
Baker yeast (Fleischmann's), S. cerevisiae, was used for all the fermentation experiments in this study. The yeast was maintained on YDP medium containing (g/L): 20 glucose, 20 peptone, 10 yeast extract and 20 agar. Isolated colony was grown in YDP liquid medium overnight and harvested as fermentation inoculum. The yeast concentration was measured using an UV-vis spectrophotometer. Inoculum of 2.0 g/L was used for all fermentation experiments.
Batch fermentation was carried out in 125 mL serum bottles containing 50 mL broths (untreated or detoxified hydrolysates, untreated or detoxified cinnamaldehyde sugar solution) without any additional nutrient supplement. All the fermentation broths were adjusted to pH 6 with NaOH or H2SO4 and sterilized by passing 0.2 μm sterile filters. After inoculation, the serum bottle was sealed with rubber stopper and aluminum seal, and equipped with cannulas for CO2 release. All fermentation experiments were incubated at 30° C., spun at 150 rpm in a shaker (E24, New Brunswick Scientific). Aliquots of samples were withdrawn at 0, 1, 3, 6, 9, 12, 24, 36 and 48 hours for the time course analysis of both starting material and products. Fermentation was carried out in duplicate. The volumetric ethanol productivity and initial consumption rate of glucose (RG) and mannose (RM) was calculated based on the sugar consumed in the first 6 h of fermentation as described previously (Cao, D. X., Tu, M. B., Xie, R., Li, J., Wu, Y. N., Adhikari, S. 2014. Inhibitory Activity of Carbonyl Compounds on Alcoholic Fermentation by Saccharomyces cerevisiae. Journal of Agricultural and Food Chemistry, 62(4), 918-926).
Ethanol, acetic acid, levulinic acid, formic acid, furfural and HMF were analyzed using an Aminex HPX-87H column (300×7.8 mm) with a refractive index detector. The elution conditions were column temperature of 45° C. and flow rate of 0.6 ml/min with 5.0 mM H2SO4 as the mobile phase in a 60 min isocratic run.

| SMILES | CEtOH, ethanol final concentration at 48 h [g/L] | CHMF, percentage of HMF consumed at 48 h [%] | QEtOH, volumetric ethanol productivity in the first 6 h [g/L/h] | RG, glucose consumption rate in the first 6 h [g/L/h] | RM, mannose consumption rate in the first 6 h [g/L/h] | YEtOH, ethanol yield from total glucose and mannose at 48 h [g/g] | CEtOH, ethanol final concentration at 48 h (listed as lysine) [g/L] | RG, glucose consumption rate in the first 6 h (listed as lysine) [g/L/h] | RM, mannose consumption rate in the first 6 h (listed as lysine) [g/L/h] | CEtOH, ethanol final concentration at 48 h (listed as histidine) [g/L] | RG, glucose consumption rate in the first 6 h (listed as histidine) [g/L/h] | RM, mannose consumption rate in the first 6 h (listed as histidine) [g/L/h] | YEtOH, ethanol yield from total glucose and mannose at 48 h (listed as histidine) [g/g] | sugar consumption rate (glucose and mannose) less than those from cysteine detoxification (2 hours detoxification) [%] |
| --- | --- | --- | --- | --- | --- | --- | --- | --- | --- | --- | --- | --- | --- | --- |
| C[C@@H](O)[C@H](N)C(=O)O [Threonine, threonine] | 3.96 ± 0.13 | 16.19 ± 0.87 | 0.41 ± 0.01 | 0.36 ± 0.02 | 0.67 ± 0.03 | 0.07 ± 0.00 | – | – | – | – | – | – | – | – |
| N[C@@H](Cc1ccc(O)cc1)C(=O)O [Tyrosine, tyrosine] | 2.16 ± 0.25 | 12.17 ± 0.92 | 0.30 ± 0.02 | 0.25 ± 0.02 | 0.59 ± 0.05 | 0.04 ± 0.00 | – | – | – | – | – | – | – | – |
| NCCCC[C@H](N)C(=O)O [Lysine, lysine] | 14.40 ± 0.57 | – | 0.72 ± 0.01 | 0.80 ± 0.06 | 1.09 ± 0.13 | – | 14.40 | 0.80 | 1.09 | – | – | – | – | – |
| CSCC[C@H](N)C(=O)O [Methionine, methionine] | 3.11 ± 0.02 | 12.78 ± 0.10 | 0.31 ± 0.00 | 0.27 ± 0.01 | 0.63 ± 0.02 | 0.06 ± 0.00 | – | – | – | – | – | – | – | – |
| N[C@@H](Cc1ccccc1)C(=O)O [Phenylalanine, phenylalanine] | 1.87 ± 0.02 | 12.69 ± 1.12 | 0.28 ± 0.00 | 0.24 ± 0.01 | 0.56 ± 0.01 | 0.03 ± 0.00 | – | – | – | – | – | – | – | – |
| O=C(O)[C@@H]1CCCN1 [Proline, proline] | 3.12 ± 0.13 | 13.35 ± 1.05 | 0.33 ± 0.00 | 0.27 ± 0.05 | 0.67 ± 0.18 | 0.06 ± 0.00 | – | – | – | – | – | – | – | – |
| C[C@H](N)C(=O)O [Alanine, alanine] | 2.14 ± 0.01 | 11.03 ± 1.64 | 0.28 ± 0.00 | 0.21 ± 0.02 | 0.44 ± 0.07 | 0.04 ± 0.00 | – | – | – | – | – | – | – | – |
| N[C@@H](Cc1c[nH]cn1)C(=O)O [Histidine, histidine] | 23.07 ± 0.35 | – | 0.78 ± 0.00 | 0.94 ± 0.00 | 1.02 ± 0.01 | 0.42 ± 0.01 | – | – | – | 23.07 | 0.94 | 1.02 | 0.42 | 50 |
| CC(C)C[C@H](N)C(=O)O [Leucine, leucine] | 2.83 ± 0.19 | 12.84 ± 1.32 | 0.34 ± 0.01 | 0.27 ± 0.04 | 0.64 ± 0.12 | 0.05 ± 0.00 | – | – | – | – | – | – | – | – |
